# Measurements taken from article PMC10329973 (Clinical pharmacology in drug development, 2023).
# Where “and” joins values, the source holds several entries; their conditions need not be identical. Equal entries are not always repeated.
# Assays:
# healthy adult volunteers [1] = assay: Multiple ascending dose study NP10679-102, safety and tolerability; format: in vivo, human; details: MAD
# CYP3A = details: ref unpublished data and Ref 35; cited from earlier work
# [2] = Single ascending dose study NP10679-101, plasma pharmacokinetics; format: in vivo, human; details: for half-life: healthy volunteers, SAD and MAD studies overall; for Vd: SAD
# hERG channel = details: read-out: IC50, hERG channel; cited from earlier work
# Plasma protein binding = format: in vitro ADME, mice, rats, dogs, and humans; details: mouse, rat, dog, human
# over 40 CNS targets = details: cited from earlier work
# [3] = system: murine MCAO model of ischemic brain injury; details: cited from earlier work
# rats and dogs = assay: Repeat-dose toxicity studies of up to 14 days; format: in vivo; details: repeat-dose toxicity studies up to 14 days, dose-limiting effect in both species
# healthy adult volunteers [4] = assay: Single ascending dose study NP10679-101, safety and tolerability; format: in vivo
# GABAergic receptors = details: cited from earlier work
# [5] = mouse; cited from earlier work
# pre-clinical models = details: cited from earlier work
# [6] = In vitro metabolic stability, hepatic microsomes; format: in vitro ADME, mice, rats, dogs, and humans; details: mouse, rat, dog, human, liver microsomes
# [7] = 100 mg IV once daily x 5 days, N = 6
smiles,measurement,setting,value
"O=C1CCc2cc(OC[C@H](O)CN3CCN(c4ccc(C(F)(F)F)cc4)CC3)ccc2N1 [NP10679, (R)-6-(2-Hydroxy-3-(4-(4-(trifluoromethyl)phenyl)piperazin-1-yl)propoxy)-3,4-dihydroquinolin-2(1H)-one]",TEAE: Dizziness,healthy adult volunteers [1]; [7],0 n (%)
same,TEAE: Dysgeusia,healthy adult volunteers [1]; [7],0 n (%)
same,TEAE: Erythema,healthy adult volunteers [1]; [7],0 n (%)
same,TEAE: Fatigue,healthy adult volunteers [1]; [7],0 n (%)
same,TEAE: Head injury,healthy adult volunteers [1]; [7],1 (16.7%) n (%)
same,TEAE: Headache,healthy adult volunteers [1]; [7],2 (33.3%) n (%)
same,TEAE: Nausea,healthy adult volunteers [1]; [7],1 (16.7%) n (%)
same,TEAE: Pain,healthy adult volunteers [1]; [7],1 (16.7%) n (%)
same,TEAE: Peripheral swelling,healthy adult volunteers [1]; [7],0 n (%)
same,TEAE: Phlebitis,healthy adult volunteers [1]; [7],1 (16.7%) n (%)
same,TEAE: Somnolence,healthy adult volunteers [1]; [7],3 n (%) and 3 (50.0%) n (%)
same,TEAE: Syncope,healthy adult volunteers [1]; [7],1 (16.7%) n (%)
same,TEAE: Vision blurred,healthy adult volunteers [1]; [7],0 n (%)
same,somnolence upon repeat dosing,healthy adult volunteers [1]; 5 days of dosing,no signs of increased somnolence
same,time-dependent inhibition of CYP3A,CYP3A,does not lead to significant time-dependent inhibition
same,half-life,[2],~ 20 h
same,clearance,"[2]; human, plasma, intravenous",163 to 200 mL/min
same,half-life,"[2]; human, plasma, intravenous, half-life",20 h
same,Vd,"[2]; human, plasma, intravenous, volume of distribution",> 221 L
same,AUC(0-inf),"[2]; human, plasma, iv, 5 mg",553 ± 204 ng·h/mL
same,AUC(0-t),"[2]; human, plasma, iv, 5 mg",335 ± 46 ng·h/mL
same,Cmax,"[2]; human, plasma, iv, 5 mg",27 ± 15 ng/mL
same,clearance,"[2]; human, plasma, iv, 5 mg",163 mL/min
same,Vd,"[2]; human, plasma, iv, 5 mg, VSS, single IV infusion 5 mg, mean ± SD",435 ± 178 L
same,Vd,"[2]; human, plasma, iv, 5 mg, Vd, area, mean, single IV infusion 5 mg",396 L
same,AUC(0-inf),"[2]; human, plasma, iv, 15 mg",1280 ± 227 ng·h/mL
same,AUC(0-t),"[2]; human, plasma, iv, 15 mg",1140 ± 233 ng·h/mL
same,Cmax,"[2]; human, plasma, iv, 15 mg",99 ± 67 ng/mL
same,clearance,"[2]; human, plasma, iv, 15 mg",200 mL/min
same,Vd,"[2]; human, plasma, iv, 15 mg, VSS, single IV infusion 15 mg, mean ± SD",306 ± 41 L
same,Vd,"[2]; human, plasma, iv, 15 mg, Vd, area, mean, single IV infusion 15 mg",346 L
same,AUC(0-inf),"[2]; human, plasma, iv, 50 mg",4680 ± 797 ng·h/mL
same,AUC(0-t),"[2]; human, plasma, iv, 50 mg",3980 ± 544 ng·h/mL
same,Cmax,"[2]; human, plasma, iv, 50 mg",415 ± 107 ng/mL
same,clearance,"[2]; human, plasma, iv, 50 mg",183 mL/min
same,Vd,"[2]; human, plasma, iv, 50 mg, VSS, single IV infusion 50 mg, mean ± SD",255 ± 20 L
same,Vd,"[2]; human, plasma, iv, 50 mg, Vd, area, mean, single IV infusion 50 mg",286 L
same,AUC(0-inf),"[2]; human, plasma, iv, 100 mg",9860 ± 3220 ng·h/mL
same,AUC(0-t),"[2]; human, plasma, iv, 100 mg",9370 ± 3090 ng·h/mL
same,Cmax,"[2]; human, plasma, iv, 100 mg",746 ± 223 ng/mL
same,clearance,"[2]; human, plasma, iv, 100 mg",183 mL/min
same,Vd,"[2]; human, plasma, iv, 100 mg, VSS, single IV infusion 100 mg, mean ± SD",259 ± 57 L
same,Vd,"[2]; human, plasma, iv, 100 mg, Vd, area, mean, single IV infusion 100 mg",317 L
same,AUC(0-inf),"[2]; human, plasma, iv, 150 mg",13900 ± 1280 ng·h/mL
same,AUC(0-t),"[2]; human, plasma, iv, 150 mg",13600 ± 1220 ng·h/mL
same,Cmax,"[2]; human, plasma, iv, 150 mg",954 ± 370 ng/mL
same,clearance,"[2]; human, plasma, iv, 150 mg",183 mL/min
same,Vd,"[2]; human, plasma, iv, 150 mg, VSS, single IV infusion 150 mg, mean ± SD",250 ± 23 L
same,Vd,"[2]; human, plasma, iv, 150 mg, Vd, area, mean, single IV infusion 150 mg",286 L
same,AUC(0-inf),"[2]; human, plasma, iv, 200 mg",20200 ± 4600 ng·h/mL
same,AUC(0-t),"[2]; human, plasma, iv, 200 mg",19700 ± 4370 ng·h/mL
same,Cmax,"[2]; human, plasma, iv, 200 mg",2070 ± 798 ng/mL
same,clearance,"[2]; human, plasma, iv, 200 mg",167 mL/min
same,Vd,"[2]; human, plasma, iv, 200 mg, VSS, single IV infusion 200 mg, mean ± SD",221 ± 34 L
same,Vd,"[2]; human, plasma, iv, 200 mg, Vd, area, mean, single IV infusion 200 mg",245 L
same,IC50,hERG channel,620 nM
same,fraction unbound,Plasma protein binding,0.01 to 0.026
same,activity at over 40 CNS targets,over 40 CNS targets,lacks demonstrable activity
same,minimum effective dose in the MCAO model,"[3]; IP, mouse",2 mg/kg
same,infarct volume,[3]; administered 15 minutes prior to occlusion,effective in reducing infarct volume
same,adverse effect directly related to IV administration,rats and dogs,sedation
same,"dissociative symptoms or cognitive impairment (CADSS, DSST)",healthy adult volunteers [4]; SAD,no evidence
same,serious adverse events (SAEs),healthy adult volunteers [4]; SAD,No serious adverse events
same,vital signs or ECGs,healthy adult volunteers [4]; SAD,no clinically significant changes
same,"changes in mean values of HDRS, MMSE, SBQ-R, GAD-7 and CADSS",healthy adult volunteers [4]; SAD study,no detectable changes
same,subjects reaching a level 3 score on the MOAA/S,"healthy adult volunteers [4]; SAD, 200 mg",no subject
same,subjects with conjunctival and scleral hyperemia,"healthy adult volunteers [4]; SAD, 200 mg",3 of 6
same,subjects presenting with somnolence,"healthy adult volunteers [4]; SAD, at doses of 50 mg - 200 mg",5 of 6
same,subjects presenting with somnolence,"healthy adult volunteers [4]; SAD, at each of doses 5 and 15 mg",One of 6
same,blood pressure (both systolic and diastolic),"healthy adult volunteers [4]; SAD, highest two doses",non-clinically significant lower blood pressure
same,subjects describing intrusive thoughts,"healthy adult volunteers [4]; SAD, single 150 mg dose",one subject
same,Bond-Lader VAS scale,"healthy adult volunteers [4]; SAD, starting at 50 mg through 200 mg",moderate increases
same,activity at GABAergic receptors,GABAergic receptors,does not have activity
same,oral availability F%,[5],76%
same,somnolence in pre-clinical models,pre-clinical models,leads to somnolence at doses above those necessary to achieve efficacy
same,half-life,[6],> 2 h
